This is an account of results in publication PMC11149917, “Translational and Therapeutic Evaluation of RAS-GTP Inhibition by RMC-6236 in RAS-Driven Cancers” (Cancer Discovery, 2024).

Structures are written as SMILES.

Assay [1] deals with HPAC. In words: 2D cell proliferation (CellTiter-Glo). In kind it is cell-based. The conditions noted are these: Homo sapiens; HPAC (KRAS^G12D/WT, PDAC); CTG, 120 hours; read-out: growth inhibition EC50. Here is the method:
(§1) NCI-H441, Capan-2, and HPAC cells were seeded in tissue culture–treated 384- or 96-well plates and incubated overnight. Cells were exposed to serial dilutions of compound or DMSO control (0.1% v/v) using a Labcyte Echo 550 or Tecan D300e digital dispenser and incubated for 120 hours at 37°C. Doxycycline-inducible cell lines were retreated with doxycycline at the time of compound treatment. Cell viability was determined by CellTiter-Glo 2.0 reagent (Promega, G9243) according to the manufacturers’ protocols. Luminescence was detected using a SpectraMax M5 Plate Reader (Molecular Devices) of PerkinElmer Enspire. Luminescence signal was normalized to vehicle-treated wells [% vehicle = (lumtreated/mean(lumvehicle) × 100]. Data were plotted as a function of log molar [inhibitor], and a 4-parameter sigmoidal concentration response model was fitted to the data to calculate the EC50. Growth percentages were calculated by normalizing the treated cell counts to their respective untreated cell counts.
In general terms: Cellular ATP, detected with luciferase, serves as a proxy for viable cell number.

The test system of assay [2] is Capan-2. As to the kind of experiment: 2D cell proliferation (CellTiter-Glo). Particulars: Homo sapiens; Capan-2 (KRAS^G12V/WT, PDAC); CTG, 120 hours; read-out: growth inhibition EC50. The format is cell-based. Here is the method: as §1

Consider `CCn1c(-c2cc(N3CCN(C)CC3)cnc2[C@H](C)OC)c2c3cc(ccc31)-c1csc(n1)C[C@H](NC(=O)[C@H]1C[C@@H]1C)C(=O)N1CCC[C@H](N1)C(=O)OCC(C)(C)C2` [RMC-6236], for which the EC50 is 1.2 nM in assay [1] and 1.4 nM in assay [2].

A word on the EC50: it is the midpoint of the concentration-response curve.
